For the assay, the system named is IFN-a/Jak1Tyk2. Kind of assay: Co-stimulation assay in lysed whole blood: IFNa (JAK1/TYK2) stimulated STAT1 phosphorylation. Type of assay: cell-based. To be noted: lysed human whole blood, IFNa 100 ng/mL + GM-CSF 10 ng/mL, pSTAT1 by flow cytometry. Here is the method:
Dilute RBC lysis buffer to 1× in distilled water. Add 2 mL blood to 38 mL of 1×RBC-lysis buffer. Incubate for 15 mins at RT, in dark. Spin at 300 g, 5 mins, to collect the pellet. Re-lyse if necessary. Re-suspend pellet in 5 mL of cRPMI.
Aliquot 80 μL of lysed human blood in to wells of 96 deep-well plate. Add 10 μl of (10× conc.) of different concentrations of compounds to all wells except controls (unstained and unstimulated) and mix it with the help of 100 uL multichannel. Add 10 uL of RPMI media in controls. For dilution of compounds and dilution range please refer Appendix. Incubate on water bath or CO2 incubator for 1 hour at 37° C. Add 10 μl of (10× conc.) of cytokine mix (GM-CSF and IFNa) (final conc. 10 ng/mL of GM-CSF and 100 ng/mL of IFNa) to each well except unstimulated and unstained controls and incubate further for 20 minutes on water bath at 37° C.
Add 900 μL of prewarmed 1× Fix/Lyse solution (Appendix) and mix it properly using 1000 μl multichannel, incubate further on water bath at 37° C. for 10 minutes (which includes time of addition). Centrifuge at 800×g for 5 minutes at 40° C.; remove 900 uL of supernatant and add 900 μL of 1×PBS. Centrifuge at 800×g for 5 minutes at 40° C., remove 900 μL of supernatant. Wash one more time with 900 μL of PBS (optional) and resuspend pellets in 100 uL of PBS.
Disrupt the pellet by gentle tapping and resuspend in 1000 μL of BD Phosflow Perm Buffer III and incubate plate on ice for 30 minutes. Centrifuge plate at 800×g for 5 minutes at 40° C. Wash two more times with 1000 μL of BD Pharmingen Stain Buffer.
Disrupt the pellet by gentle tapping. Resuspend pellets in 100 uL of Stain Buffer and add 5 μL of pSTAT5_AF488 Ab and 5 uL of pSTAT1_PE in all wells except unstained control and mix properly using 200 μl multichannel, incubate overnight at […]. Add 900 μL of wash buffer and centrifuge at 1800 rpm for 3 minutes at […]. Wash one more time with 1000 μL of BD Pharmingen Stain Buffer. Finally resuspend the pellet in 300 uL of BD Pharmingen Stain Buffer. Transfer the cells to 96-well v-bottom plate and acquire the cells in Beckman Coulter CytExpert. Acquiring cells in Flow Cytometer: Keep the threshold value to 250 and cell concentration should not exceed 100-500 cells/μL. Acquire at least 5,000-10,000 cells.
Cytokine dilution: 1) GM-CSF Stock at 100 ug/mL. Prepare an intermediate dilution of 1 ug/mL by adding 2 uL of stock into 198 uL of cRPMI. Further dilute to 100 ng/mL by adding 100 uL of the intermediate stock to 900 uL of cRPMI. 2) IFNa Stock at 200 ug/mL. Dilute IFNa stock 1:200 by adding 5 uL of stock into the 1000 uL of 100 ng/mL GM-CSF working stock as above to give a combined working stock of 1000 ng/mL of IFNa and 100 ng/mL GM-CSF (10×). Keep it on ice until used.
Lyse/Fix buffer preparation: Dilute 5× Lyse/Fix buffer to 1× using MQ water and keep at 37° C. until used.
BD Phosflow perm buffer III: Keep on ice/fridge.
In general terms: In flow cytometry, cells or beads pass a laser one at a time.

On to `CNc1cc(Nc2cccc(N3CCOCC3)c2)nc2c(C(=O)NC3CC3)cnn12` [Compound 55, N-cyclopropyl-7-(methylamino)-5-((3-morpholinophenyl)amino)pyrazolo [1,5-a]pyrimidine-3-carboxamide], for which, where the note is “20 min”, the IC50 is under 100 nM.
Take `CNc1cc(Nc2cc(F)cc(F)c2OC)nc2c(C(N)=O)cnn12` [Compound 13, 5-((3,5-difluoro-2-methoxyphenyl)amino)-7-(methylamino)pyrazole[1,5-a]pyrimidine-3-carboxamide]: the IC50 (20 minutes) is under 100 nM.
As to `CNc1cc(Nc2cccn(-c3ccnc(C)n3)c2=O)nc2c(C(=O)NC3CCC3)cnn12` [Compound 110, N-cyclobutyl-7-(methylamino)-5-((1-(2-methylpyrimidin-4-yl)-2-oxo-1,2-dihydropyridin-3-yl)amino)pyrazolo[1,5-a]pyrimidine-3-carboxamide], the IC50 (20 min) was under 100 nM.
Still for that read-out and setting: the value for `CNc1cc(Nc2csnc2C(=O)O)nc2c(C(=O)NCCOC)cnn12` [Compound 46, 4-((3-((2-methoxyethyl)carbamoyl)-7-(methylamino)pyrazolo[1,5-a]pyrimidin-5-yl)amino)isothiazole-3-carboxylic acid] was over 300 nM; that for `CNc1cc(Nc2cccc3c2OCO3)nc2c(C(=O)NCC(C)(C)CO)cnn12` [Compound 50, 5-(benzo[d][1,3]dioxol-4-ylamino)-N-(3-hydroxy-2,2-dimethylpropyl)-7-(methylamino)pyrazolo[1,5-a]pyrimidine-3-carboxamide] was under 100 nM; that for `CNC(=O)c1cscc1Nc1cc(NC)n2ncc(C(=O)NC3CC3)c2n1` [Compound 44, N-cyclopropyl-7-(methylamino)-5-((4-(methylcarbamoyl)thiophen-3-yl)amino)pyrazolo[1,5-a]pyrimidine-3-carboxamide] was 100 to 1000 nM.
Still for that read-out and setting: the value for `CNc1cc(Nc2cccn(C)c2=O)nc2c(C(=O)NC3CCC3)cnn12` [Compound 113, N-cyclobutyl-5-((1-methyl-2-oxo-1,2-dihydropyridin-3-yl)amino)-7-(methylamino)pyrazolo[1,5-a]pyrimidine-3-carboxamide] was under 100 nM; that for `CNc1cc(Nc2cccn(-c3ccc(OC)nn3)c2=O)nc2c(C(=O)N[C@@H]3C[C@@H]3F)cnn12` [Compound 101, N-((1R,2S)-2-fluorocyclopropyl)-5-((1-(6-methoxypyridazin-3-yl)-2-oxo-1,2-dihydropyridin-3-yl)amino)-7-(methylamino)pyrazolo[1,5-a]pyrimidine-3-carboxamide] was under 100 nM.
On the same count and under the same terms, the value for `CCOc1ccc(-n2cccc(Nc3cc(NC)n4ncc(C(=O)NC5CCC5)c4n3)c2=O)nn1` [Compound 108, N-cyclobutyl-5-((1-(6-ethoxypyridazin-3-yl)-2-oxo-1,2-dihydropyridin-3-yl)amino)-7-(methylamino)pyrazolo[1,5-a]pyrimidine-3-carboxamide] was under 100 nM; that for `CNc1cc(Nc2ccc3c(c2)CCN(C)C3)nc2c(C(=O)NC3CC3)cnn12` [Compound 60, N-cyclopropyl-5-((2-methyl-1,2,3,4-tetrahydroisoquinolin-6-yl)amino)-7-(methylamino)pyrazolo[1,5-a]pyrimidine-3-carboxamide] was 1000 to 10000 nM; that for `CNc1cc(Nc2cc(F)cc(F)c2OC)nc2c(C(N)=O)cnn12` [Compound 74, 5-((3,5-difluoro-2-methoxyphenyl)amino)-7-(methylamino)pyrazolo[1,5-a]pyrimidine-3-carboxamide] was over 300 nM.
Take `CNc1cc(Nc2cccn(-c3ccccn3)c2=O)nc2c(C(=O)NC3CCC3)cnn12` [Compound 114, N-cyclobutyl-7-(methylamino)-5-((2-oxo-2H-[1,2′-bipyridin]-3-yl)amino)pyrazolo[1,5-a]pyrimidine-3-carboxamide]: the IC50 (20 min) is under 100 nM.
In the case of `CNc1cc(Nc2cccc3c2OCCO3)nc2c(C(=O)NC3CCOC3)cnn12` (stereo not shown) [Compound 68, 5-((2,3-dihydrobenzo[b][1,4]dioxin-5-yl)amino)-7-(methylamino)-N-(tetrahydrofuran-3-yl)pyrazolo[1,5-a]pyrimidine-3-carboxamide], the IC50 (20 min) was 100 to 1000 nM.
The same measure, in the same setting: the value for `[2H]C([2H])([2H])NC(=O)c1cnn2c(NC([2H])([2H])[2H])cc(Nc3cc(F)cc4c3OCCO4)nc12` [Compound 78, 5-((7-fluoro-2,3-dihydrobenzo[b][1,4]dioxin-5-yl)amino)-N-(methyl-d3)-7-((methyl-d3)amino)pyrazolo[1,5-a]pyrimidine-3-carboxamide] was 100 to 1000 nM.
On to `CNc1cc(Nc2cc(Cl)cc3c2OCCO3)nc2c(C(=O)NCC(C)(C)CO)cnn12` [Compound 92, 5-((7-chloro-2,3-dihydrobenzo[b][1,4]dioxin-5-yl)amino)-N-(3-hydroxy-2,2-dimethylpropyl)-7-(methylamino)pyrazolo[1,5-a]pyrimidine-3-carboxamide], for which the IC50 (20 min) was under 100 nM.
For the molecule `CCOC(=O)c1nscc1Nc1cc(NC)n2ncc(C(=O)NC3CC3)c2n1` [Compound 38, ethyl 4-((3-(cyclopropylcarbamoyl)-7-(methylamino)pyrazolo[1,5-a]pyrimidin-5-yl)amino)isothiazole-3-carboxylate], the IC50 (20 min) is over 300 nM.
Same read-out and setting: for `CNc1cc(Nc2cc(F)cc(F)c2OC)nc2c(C(=O)NC3CC3F)cnn12` (stereo not shown) [Compound 73, 5-((3,5-difluoro-2-methoxyphenyl)amino)-N-(2-fluorocyclopropyl)-7-(methylamino)pyrazolo[1,5-a]pyrimidine-3-carboxamide] the value was under 100 nM; for `[2H]C([2H])([2H])Nc1cc(Nc2cccn(C)c2=O)nc2c(C(=O)NC3CCC3)cnn12` [Compound 94, N-cyclobutyl-5-((1-methyl-2-oxo-1,2-dihydropyridin-3-yl)amino)-7-((methyl-d3)amino)pyrazolo[1,5-a]pyrimidine-3-carboxamide], under 100 nM.
The same measure, in the same setting: for `[2H]C([2H])([2H])n1cccc(Nc2cc(NC)n3ncc(C(=O)N[C@@H]4C[C@@H]4F)c3n2)c1=O` [Compound 85, N-((1R,2S)-2-fluorocyclopropyl)-5-((1-(methyl-d3)-2-oxo-1,2-dihydropyridin-3-yl)amino)-7-(methylamino)pyrazolo[1,5-a]pyrimidine-3-carboxamide] the value was under 100 nM; for `CNc1cc(Nc2cccc3c2OCCO3)nc2c(C(=O)NC3CC(O)C3)cnn12` (stereo not shown) [Compound 102, 5-((2,3-dihydrobenzo[b][1,4]dioxin-5-yl)amino)-N-(3-hydroxycyclobutyl)-7-(methylamino)pyrazolo[1,5-a]pyrimidine-3-carboxamide], under 100 nM.
For the molecule `CNc1cc(Nc2cccn(C)c2=O)nc2c(C(=O)N[C@H]3C[C@H]3F)cnn12` [Compound 107, N-((1S,2R)-2-fluorocyclopropyl)-5-((1-methyl-2-oxo-1,2-dihydropyridin-3-yl)amino)-7-(methylamino)pyrazolo[1,5-a]pyrimidine-3-carboxamide], the IC50 (20 min) is under 100 nM.
With `CNc1cc(Nc2cnn(CCOC)c2)nc2c(C(=O)NC3CC3)cnn12` [Compound 47, N-cyclopropyl-5-((1-(2-methoxyethyl)-1H-pyrazol-4-yl)amino)-7-(methylamino)pyrazolo[1,5-a]pyrimidine-3-carboxamide], the IC50 (20 min) is over 300 nM.

Broadly, the IC50 is the concentration that gives 50% inhibition.
